Structures can show the parent of a compound that is named as a salt.
Legend:
[1] = result in words, conditions not given
[2] = as compared to any other crystalline form
[3] = result in words, conditions not given; remark: listed apart in the source

stability [1]: stable
solubility in water [2]: more soluble in water
hygroscopicity [3]: non-hygroscopic
Structure (SMILES): OCCOCCN1CCN(C2=Nc3ccccc3Sc3ccccc32)CC1 [amorphous quetiapine hydrochloride, Quetiapine Hydrochloride]
